The supplement of paper PMC10307832

Tests used:
Assay in all cases: relative viability (nuclei count vs DMSO), 5 days (fraction); higher = more cells survive
NCI-H2009 = tested on: NCI-H2009
In short: (§1)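 Values are medians from duplicate plates. Each reflects relative viability, defined as the nuclei count of treated wells over that of vehicle wells. Lung cancer cell lines in 1536-well plates were pin-tool dosed one day after seeding with one drug alone or with a fixed anchor-drug dose plus five library-drug doses (not always all listed) in √10 steps, then fixed, stained and imaged at 4× after 5 days.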

NCI-H1975 = tested on: NCI-H1975
In short: as §1

NCI-H460 = tested on: NCI-H460
In short: as §1

CAL-12T = tested on: CAL-12T
In short: as §1

NCI-H1755 = tested on: NCI-H1755
In short: as §1

EMC-BAC-2 = tested on: EMC-BAC-2
In short: as §1

HCC-827 = tested on: HCC-827
In short: as §1

NCI-H1915 = tested on: NCI-H1915
In short: as §1

COR-L 105 = tested on: COR-L 105
In short: as §1

NCI-H1792 = tested on: NCI-H1792
In short: as §1

SW 1573 = tested on: SW 1573
In short: as §1

NCI-H2228 = tested on: NCI-H2228
In short: as §1

NCI-H1355 = tested on: NCI-H1355
In short: as §1

HCC-366 = tested on: HCC-366
In short: as §1

NCI-H727 = tested on: NCI-H727
In short: as §1

NCI-H1395 = tested on: NCI-H1395
In short: as §1

SK-LU-1 = tested on: SK-LU-1
In short: as §1

HARA = tested on: HARA
In short: as §1

NCI-H23 = tested on: NCI-H23
In short: as §1

HOP-62 = tested on: HOP-62
In short: as §1

NCI-H1437 = tested on: NCI-H1437
In short: as §1

A-427 = tested on: A-427
In short: as §1

## O=C(O)c1ccc(-c2c[nH]c3ncc(-c4ccccc4)cc23)cc1C1CCCC1 + CS(=O)(=O)CCNCc1ccc(-c2ccc3ncnc(Nc4ccc(OCc5cccc(F)c5)c(Cl)c4)c3c2)o1 [Lapatinib] (partner 2 µM)
NCI-H2009; first compound 0.04 µM
  relative viability: 1.06
NCI-H2009; first compound 0.1265 µM
  relative viability: 0.922
NCI-H2009; first compound 0.4 µM
  relative viability: 0.882
NCI-H2009; first compound 1.265 µM
  relative viability: 0.848
NCI-H1975; first compound 0.04 µM
  relative viability: 0.873
NCI-H1975; first compound 0.1265 µM
  relative viability: 1.02
NCI-H1975; first compound 0.4 µM
  relative viability: 1
NCI-H1975; first compound 1.265 µM
  relative viability: 0.49
NCI-H460; first compound 0.04 µM
  relative viability: 0.897
NCI-H460; first compound 0.1265 µM
  relative viability: 1.03
NCI-H460; first compound 0.4 µM
  relative viability: 0.801
NCI-H460; first compound 1.265 µM
  relative viability: 0.782
CAL-12T; first compound 0.04 µM
  relative viability: 0.788
CAL-12T; first compound 0.1265 µM
  relative viability: 0.908
CAL-12T; first compound 0.4 µM
  relative viability: 0.705
CAL-12T; first compound 1.265 µM
  relative viability: 0.423
NCI-H1755; first compound 0.04 µM
  relative viability: 1.02
NCI-H1755; first compound 0.1265 µM
  relative viability: 1.11
NCI-H1755; first compound 0.4 µM
  relative viability: 1.02
NCI-H1755; first compound 1.265 µM
  relative viability: 0.967
EMC-BAC-2; first compound 0.04 µM
  relative viability: 0.848
EMC-BAC-2; first compound 0.1265 µM
  relative viability: 1.03
EMC-BAC-2; first compound 0.4 µM
  relative viability: 0.916
EMC-BAC-2; first compound 1.265 µM
  relative viability: 0.946
HCC-827; first compound 0.04 µM
  relative viability: 0.209
HCC-827; first compound 0.1265 µM
  relative viability: 0.196
HCC-827; first compound 0.4 µM
  relative viability: 0.189
HCC-827; first compound 1.265 µM
  relative viability: 0.195
NCI-H1915; first compound 0.04 µM
  relative viability: 1.05
NCI-H1915; first compound 0.1265 µM
  relative viability: 1.03
NCI-H1915; first compound 0.4 µM
  relative viability: 0.972
NCI-H1915; first compound 1.265 µM
  relative viability: 0.743
COR-L 105; first compound 0.04 µM
  relative viability: 0.363
COR-L 105; first compound 0.1265 µM
  relative viability: 0.401
COR-L 105; first compound 0.4 µM
  relative viability: 0.347
COR-L 105; first compound 1.265 µM
  relative viability: 0.371
NCI-H1792; first compound 0.04 µM
  relative viability: 0.77
NCI-H1792; first compound 0.1265 µM
  relative viability: 0.942
NCI-H1792; first compound 0.4 µM
  relative viability: 0.953
NCI-H1792; first compound 1.265 µM
  relative viability: 0.847
SW 1573; first compound 0.04 µM
  relative viability: 1.15
SW 1573; first compound 0.1265 µM
  relative viability: 1.39
SW 1573; first compound 0.4 µM
  relative viability: 1.14
SW 1573; first compound 1.265 µM
  relative viability: 1.09
NCI-H2228; first compound 0.04 µM
  relative viability: 1.17
NCI-H2228; first compound 0.1265 µM
  relative viability: 1.41
NCI-H2228; first compound 0.4 µM
  relative viability: 1.2
NCI-H2228; first compound 1.265 µM
  relative viability: 0.362
NCI-H1355; first compound 0.04 µM
  relative viability: 1.02
NCI-H1355; first compound 0.1265 µM
  relative viability: 1.09
NCI-H1355; first compound 0.4 µM
  relative viability: 0.963
NCI-H1355; first compound 1.265 µM
  relative viability: 0.829
HCC-366; first compound 0.04 µM
  relative viability: 1.01
HCC-366; first compound 0.1265 µM
  relative viability: 0.869
HCC-366; first compound 0.4 µM
  relative viability: 0.953
HCC-366; first compound 1.265 µM
  relative viability: 0.981
NCI-H727; first compound 0.04 µM
  relative viability: 0.955
NCI-H727; first compound 0.1265 µM
  relative viability: 1
NCI-H727; first compound 0.4 µM
  relative viability: 0.876
NCI-H727; first compound 1.265 µM
  relative viability: 1.16
NCI-H1395; first compound 0.04 µM
  relative viability: 1.01
NCI-H1395; first compound 0.1265 µM
  relative viability: 1.23
NCI-H1395; first compound 0.4 µM
  relative viability: 0.867
NCI-H1395; first compound 1.265 µM
  relative viability: 0.851
SK-LU-1; first compound 0.04 µM
  relative viability: 0.874
SK-LU-1; first compound 0.1265 µM
  relative viability: 0.831
SK-LU-1; first compound 0.4 µM
  relative viability: 0.771
SK-LU-1; first compound 1.265 µM
  relative viability: 0.488
HARA; first compound 0.04 µM
  relative viability: 0.578
HARA; first compound 0.1265 µM
  relative viability: 0.925
HARA; first compound 0.4 µM
  relative viability: 0.802
HARA; first compound 1.265 µM
  relative viability: 0.716
NCI-H23; first compound 0.04 µM
  relative viability: 1.12
NCI-H23; first compound 0.1265 µM
  relative viability: 0.894
NCI-H23; first compound 0.4 µM
  relative viability: 0.919
NCI-H23; first compound 1.265 µM
  relative viability: 0.752
HOP-62; first compound 0.04 µM
  relative viability: 1.23
HOP-62; first compound 0.1265 µM
  relative viability: 0.993
HOP-62; first compound 0.4 µM
  relative viability: 1.1
HOP-62; first compound 1.265 µM
  relative viability: 0.897
NCI-H1437; first compound 0.04 µM
  relative viability: 0.794
NCI-H1437; first compound 0.1265 µM
  relative viability: 0.823
NCI-H1437; first compound 0.4 µM
  relative viability: 0.765
NCI-H1437; first compound 1.265 µM
  relative viability: 0.338
A-427; first compound 0.04 µM
  relative viability: 0.965
A-427; first compound 0.1265 µM
  relative viability: 1.06
A-427; first compound 0.4 µM
  relative viability: 0.986
A-427; first compound 1.265 µM
  relative viability: 0.935
